Data on 26 compounds can be found in patent US12065436B2, “Cardiac sarcomere inhibitors” (Cytokinetics, Inc., priority 2018, dated 2024).

The test concerns the target bovine cardiac myofibrils (full-length cardiac myosin ATPase in the native sarcomere) (Bos taurus (Bovine), UniProt Q9BE39). In words: Skinned bovine cardiac myofibril ATPase assay (PK/LDH-coupled). In kind it is biochemical. The note with it: Ca2+ activating to 75% of maximal rate; for CDMF75 IC15: concentration giving 15% inhibition; for pIC50: read-out: CDMF75 IC50. The method, then: To evaluate the effect of compounds on the ATPase activity of full-length cardiac myosin in the context of the native sarcomere, skinned myofibril assays were performed. Bovine cardiac myofibrils were obtained by homogenizing bovine cardiac left ventricular tissue in the presence of a detergent such as triton X-100. Such treatment removes membranes and a majority of the soluble cytoplasmic proteins but leaves intact the cardiac sarcomeric acto-myosin apparatus. Myofibril preparations retain the ability to hydrolyze ATP in an Ca^2+ regulated manner. ATPase activities of such myofibril preparations in the presence and absence of compounds were assayed at Ca^2+ concentrations activating to a defined fraction of the maximal rate (i.e., 25%, 75%). Small molecule agents were assessed for their ability to inhibit the steady-state ATPase activity of bovine cardiac myofibrils using pyruvate kinase and lactate dehydrogenase (PK/LDH)-coupled enzyme system. This assay regenerates myosin-produced ADP into ATP by oxidizing NADH, producing an absorbance change at 340 nm. Prior to testing small molecule agents, the bovine cardiac myofibrils were assessed for their calcium responsiveness and the calcium concentration that achieves either a 50% (pCa50) or 75% (pCa75) activation of the myofibril system was chosen as the final condition for assessing the inhibitory activity of the small molecule agents. All enzymatic activity was measured in a buffered solution containing 12 mM PIPES (piperazine-N,N′-bis(2-ethanesulfonic acid), 2 mM magnesium chloride at pH 6.8 (PM 12 buffer). Final assay conditions were 1 mg/mL of bovine cardiac myofibrils, 4 U/mL pyruvate kinase, 6 U/mL lactate dehydrogenase, 50 μM ATP, 0.1 mg/mL BSA (bovine serum albumin), 10 ppm antifoam, 1 mM DTT, 0.5 mM NADH, 1.5 mM PEP, 0.6 mM EGTA, and an amount of CaCl2) sufficient to achieve either 50% or 75% activation of the myofibril ATPase activity.

pIC50: −log10 of the molar value.

Sequence of bovine cardiac myofibrils (full-length cardiac myosin ATPase in the native sarcomere) (Q9BE39 whole entry): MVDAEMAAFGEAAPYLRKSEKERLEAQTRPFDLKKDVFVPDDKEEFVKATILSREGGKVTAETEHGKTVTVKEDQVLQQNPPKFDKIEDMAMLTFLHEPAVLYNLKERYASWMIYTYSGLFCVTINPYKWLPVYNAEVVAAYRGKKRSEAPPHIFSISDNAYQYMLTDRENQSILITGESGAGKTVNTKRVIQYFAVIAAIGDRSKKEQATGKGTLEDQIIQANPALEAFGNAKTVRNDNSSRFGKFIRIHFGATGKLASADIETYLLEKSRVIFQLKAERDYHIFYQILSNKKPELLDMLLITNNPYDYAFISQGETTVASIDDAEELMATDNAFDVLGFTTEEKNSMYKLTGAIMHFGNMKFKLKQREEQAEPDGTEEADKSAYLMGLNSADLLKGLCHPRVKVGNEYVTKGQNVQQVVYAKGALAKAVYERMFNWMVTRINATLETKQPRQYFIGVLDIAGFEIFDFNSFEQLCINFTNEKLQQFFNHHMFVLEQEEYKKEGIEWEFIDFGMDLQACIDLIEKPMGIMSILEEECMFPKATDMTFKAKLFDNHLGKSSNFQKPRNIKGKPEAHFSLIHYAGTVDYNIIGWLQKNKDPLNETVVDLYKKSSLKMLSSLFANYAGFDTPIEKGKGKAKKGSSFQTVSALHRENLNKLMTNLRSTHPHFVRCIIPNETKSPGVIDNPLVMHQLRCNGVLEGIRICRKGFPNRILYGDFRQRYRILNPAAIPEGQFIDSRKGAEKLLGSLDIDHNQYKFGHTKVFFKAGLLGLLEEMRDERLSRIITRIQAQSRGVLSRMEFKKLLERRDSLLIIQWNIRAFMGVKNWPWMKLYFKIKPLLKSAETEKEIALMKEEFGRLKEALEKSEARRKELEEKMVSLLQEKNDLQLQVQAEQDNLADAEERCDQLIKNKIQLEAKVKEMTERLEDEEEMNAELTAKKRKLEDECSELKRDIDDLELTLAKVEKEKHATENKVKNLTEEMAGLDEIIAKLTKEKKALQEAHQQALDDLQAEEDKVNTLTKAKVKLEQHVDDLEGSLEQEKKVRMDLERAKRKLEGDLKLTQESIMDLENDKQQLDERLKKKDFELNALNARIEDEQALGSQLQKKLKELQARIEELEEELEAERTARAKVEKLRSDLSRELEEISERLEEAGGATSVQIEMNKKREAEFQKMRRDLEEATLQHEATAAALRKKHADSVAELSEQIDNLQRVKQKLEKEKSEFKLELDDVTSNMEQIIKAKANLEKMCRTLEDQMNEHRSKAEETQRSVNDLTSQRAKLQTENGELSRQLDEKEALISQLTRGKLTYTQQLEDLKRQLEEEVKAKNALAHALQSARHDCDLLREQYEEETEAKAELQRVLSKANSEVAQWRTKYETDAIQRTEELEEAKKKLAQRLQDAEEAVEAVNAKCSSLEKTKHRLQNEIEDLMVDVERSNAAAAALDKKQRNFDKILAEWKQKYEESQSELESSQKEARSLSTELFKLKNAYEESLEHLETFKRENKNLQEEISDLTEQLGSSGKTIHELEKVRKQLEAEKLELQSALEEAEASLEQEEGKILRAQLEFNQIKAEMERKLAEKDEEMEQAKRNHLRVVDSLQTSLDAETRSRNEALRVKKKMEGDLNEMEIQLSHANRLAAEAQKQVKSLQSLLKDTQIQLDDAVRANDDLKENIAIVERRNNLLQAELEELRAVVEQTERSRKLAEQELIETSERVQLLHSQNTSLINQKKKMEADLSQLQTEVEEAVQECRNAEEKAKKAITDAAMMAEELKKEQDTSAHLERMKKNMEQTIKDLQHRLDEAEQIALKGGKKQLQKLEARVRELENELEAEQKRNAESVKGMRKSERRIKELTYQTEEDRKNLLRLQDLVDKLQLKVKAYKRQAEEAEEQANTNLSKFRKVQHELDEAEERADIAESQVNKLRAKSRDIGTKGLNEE
Sequence of bovine cardiac myofibrils (full-length cardiac myosin ATPase in the native sarcomere) (P85100 whole entry partner): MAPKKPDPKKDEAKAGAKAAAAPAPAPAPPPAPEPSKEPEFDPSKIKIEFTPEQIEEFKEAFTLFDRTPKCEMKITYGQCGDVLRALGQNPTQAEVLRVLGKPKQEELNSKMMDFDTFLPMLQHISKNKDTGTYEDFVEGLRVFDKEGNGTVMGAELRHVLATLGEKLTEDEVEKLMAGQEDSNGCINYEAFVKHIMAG
Sequence of bovine cardiac myofibrils (full-length cardiac myosin ATPase in the native sarcomere) (Q3SZE5 whole entry partner): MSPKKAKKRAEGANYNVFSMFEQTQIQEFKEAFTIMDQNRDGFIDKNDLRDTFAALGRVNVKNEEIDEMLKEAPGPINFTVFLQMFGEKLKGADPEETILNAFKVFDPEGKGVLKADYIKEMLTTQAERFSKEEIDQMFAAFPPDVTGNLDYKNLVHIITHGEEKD

For `Cc1cnoc1C(=O)N[C@@H]1CCc2cc(-c3noc(C4COC4)n3)ccc21` [Compound 117, (R)-4-methyl-N-(5-(5-(oxetan-3-yl)-1,2,4-oxadiazol-3-yl)-2,3-dihydro-1H-inden-1-yl)isoxazole-5-carboxamide], the “CDMF75 IC15” value worked out at 1.9 µM and the pIC50 was 5.00. Taken in the same sequence, the figures for `[2H]C([2H])([2H])C(=O)N[C@@H]1CCc2cc(-c3noc(CC)n3)ccc21` [Compound 446, (R)-N-(5-(5-ethyl-1,2,4-oxadiazol-3-yl)-2,3-dihydro-1H-inden-1-yl)acetamide-2,2,2-d3] were 0.7 µM and 5.59.

As for `Cc1cc(-c2ccc3c(c2)CC[C@H]3NC(=O)c2cnc(C)o2)no1` [Compound 416, (R)-2-methyl-N-(5-(5-methylisoxazol-3-yl)-2,3-dihydro-1H-inden-1-yl)oxazole-5-carboxamide], the “CDMF75 IC15” value worked out at 1.2 µM and the pIC50 is 5.38.

Consider `COCc1nc(-c2ccc3c(c2)CC[C@H]3NC(=O)c2cnn(CCO)c2)no1` [Compound 523, (R)-1-(2-hydroxyethyl)-N-(5-(5-(methoxymethyl)-1,2,4-oxadiazol-3-yl)-2,3-dihydro-1H-inden-1-yl)-1H-pyrazole-4-carboxamide], for which the “CDMF75 IC15” value is 2.9 µM and the pIC50 was 4.88. On the same counts, the results for `COCCn1cc(C(=O)N[C@@H]2CCc3cc(-c4noc(COC)n4)ccc32)cn1` [Compound 512, (R)-1-(2-methoxyethyl)-N-(5-(5-(methoxymethyl)-1,2,4-oxadiazol-3-yl)-2,3-dihydro-1H-inden-1-yl)-1H-pyrazole-4-carboxamide] are 4.5 µM and 4.74. On the same counts, the results for `COCc1nc(-c2ccc3c(c2)CC[C@H]3NC(=O)c2cn(C)nc2C)no1` [Compound 182, (R)-N-(5-(5-(methoxymethyl)-1,2,4-oxadiazol-3-yl)-2,3-dihydro-1H-inden-1-yl)-1,3-dimethyl-1H-pyrazole-4-carboxamide] are 1.0 µM and 5.39. Regarding `[2H]C([2H])([2H])c1noc(-c2ccc3c(c2)OC[C@H]3NC(=O)c2nnn(C)n2)n1` [Compound 342, (S)-2-methyl-N-(6-(3-(methyl-d3)-1,2,4-oxadiazol-5-yl)-2,3-dihydrobenzofuran-3-yl)-2H-tetrazole-5-carboxamide], the “CDMF75 IC15” value is 8.0 µM and the pIC50 was less than 4.41. On the same counts, the results for `CC(C)c1nc(-c2ccc3c(c2)CC[C@H]3NC(=O)c2nn[nH]n2)no1` [Compound 499, (R)-N-(5-(5-isopropyl-1,2,4-oxadiazol-3-yl)-2,3-dihydro-1H-inden-1-yl)-2H-tetrazole-5-carboxamide] are 2.4 µM and 4.41. Taken in the same sequence, the figures for `CCc1nc(-c2ccc3c(c2)CC[C@H]3NC(=O)c2cnn(CC(N)=O)c2)no1` [Compound 475, (R)-1-(2-amino-2-oxoethyl)-N-(5-(5-ethyl-1,2,4-oxadiazol-3-yl)-2,3-dihydro-1H-inden-1-yl)-1H-pyrazole-4-carboxamide] were 0.9 µM and 5.42. Take `COCc1nc(-c2ccc3c(c2)CC[C@H]3NC(=O)c2cc(C)on2)no1` [Compound 690, (R)-N-(5-(5-(methoxymethyl)-1,2,4-oxadiazol-3-yl)-2,3-dihydro-1H-inden-1-yl)-5-methylisoxazole-3-carboxamide]: the “CDMF75 IC15” value came out at 4.4 µM and the pIC50 was 4.67.

For the compound `CCc1nc(-c2ccc3c(c2)CC[C@H]3NC(=O)N2CC[C@@H](O)C2)no1` [Compound 724, (R)-N-((R)-5-(5-ethyl-1,2,4-oxadiazol-3-yl)-2,3-dihydro-1H-inden-1-yl)-3-hydroxypyrrolidine-1-carboxamide], the “CDMF75 IC15” value was 1.7 µM and the pIC50 is 5.17. On the same counts, the results for `O=C(N[C@@H]1CCc2cc(-c3noc(C(F)F)n3)ccc21)N1CCCC1` [Compound 300, (R)-N-(5-(5-(difluoromethyl)-1,2,4-oxadiazol-3-yl)-2,3-dihydro-1H-inden-1-yl)pyrrolidine-1-carboxamide] are 12.3 µM and less than 4.41. Taken in the same sequence, the figures for `Cc1cc(-c2ccc3c(c2)CC[C@H]3NC(=O)c2ccnn2C)no1` [Compound 403, (R)-1-methyl-N-(5-(5-methylisoxazol-3-yl)-2,3-dihydro-1H-inden-1-yl)-1H-pyrazole-5-carboxamide] were 0.4 µM and 5.92.

Regarding `CCc1nc(-c2ccc3c(c2)CC[C@H]3NC(=O)c2cnn(CC(OC)OC)c2)no1` [Compound 530, (R)-1-(2,2-dimethoxyethyl)-N-(5-(5-ethyl-1,2,4-oxadiazol-3-yl)-2,3-dihydro-1H-inden-1-yl)-1H-pyrazole-4-carboxamide], the “CDMF75 IC15” value is 2.6 µM and the pIC50 is 5.05. Taken in the same sequence, the figures for `Cc1noc(-c2ccc3c(c2)CC[C@H]3NC(=O)c2cnc(C)o2)n1` [Compound 202, (R)-2-methyl-N-(5-(3-methyl-1,2,4-oxadiazol-5-yl)-2,3-dihydro-1H-inden-1-yl)oxazole-5-carboxamide] were 2.6 µM and 4.98. With `CCc1nc(-c2ccc3c(c2)CC[C@H]3NC(=O)c2cccc(C)n2)no1` [Compound 594, (R)-N-(5-(5-ethyl-1,2,4-oxadiazol-3-yl)-2,3-dihydro-1H-inden-1-yl)-6-methylpicolinamide], the “CDMF75 IC15” value was found to be 1.4 µM and the pIC50 is 5.24. Taken in the same sequence, the figures for `Cc1noc(-c2ccc3c(c2)CC[C@H]3NC(=O)c2cnc(C)n2C)n1` [Compound 702, (R)-1,2-dimethyl-N-(5-(3-methyl-1,2,4-oxadiazol-5-yl)-2,3-dihydro-1H-inden-1-yl)-1H-imidazole-5-carboxamide] were 2.6 µM and 4.93.

For the compound `CCc1nc(-c2ccc3c(c2)OC[C@H]3NC(=O)c2ccnn2C)no1` [Compound 228, (S)—N-(6-(5-ethyl-1,2,4-oxadiazol-3-yl)-2,3-dihydrobenzofuran-3-yl)-1-methyl-1H-pyrazole-5-carboxamide], the “CDMF75 IC15” value amounted to 0.3 µM and the pIC50 was 6.10. Taken in the same sequence, the figures for `Cn1cc(C(=O)NC2COc3cc(-c4noc(C(F)F)n4)ccc32)cn1` (stereo not drawn) [Compound 219, N-(6-(5-(difluoromethyl)-1,2,4-oxadiazol-3-yl)-2,3-dihydrobenzofuran-3-yl)-1-methyl-1H-pyrazole-4-carboxamide] were 0.7 µM and 5.60. On the same counts, the results for `Cc1nc(-c2ccc3c(c2)CC[C@H]3NC(=O)c2cnn(CCO)c2)no1` [Compound 520, (R)-1-(2-hydroxyethyl)-N-(5-(5-methyl-1,2,4-oxadiazol-3-yl)-2,3-dihydro-1H-inden-1-yl)-1H-pyrazole-4-carboxamide] are 1.8 µM and 5.09. On the same counts, the results for `CCc1nc(-c2ccc3c(c2)CC[C@H]3NC(=O)c2cccnc2)no1` [Compound 624, (R)-N-(5-(5-ethyl-1,2,4-oxadiazol-3-yl)-2,3-dihydro-1H-inden-1-yl)nicotinamide] are 0.4 µM and 5.82. Regarding `[2H]C([2H])([2H])c1noc(-c2ccc3c(c2)CC[C@H]3NC(=O)c2nnn(C)n2)n1` [Compound 272, (R)-2-methyl-N-(5-(3-(methyl-d3)-1,2,4-oxadiazol-5-yl)-2,3-dihydro-1H-inden-1-yl)-2H-tetrazole-5-carboxamide], the “CDMF75 IC15” value is 1.2 µM and the pIC50 is 5.37. Regarding `Cc1nccc(-c2ccc3c(c2)CC[C@H]3NC(=O)c2ccnn2C)n1` [Compound 379, (R)-1-methyl-N-(5-(2-methylpyrimidin-4-yl)-2,3-dihydro-1H-inden-1-yl)-1H-pyrazole-5-carboxamide], the “CDMF75 IC15” value was determined as 39.2 µM and the pIC50 is less than 4.41. `Cc1nc(-c2ccc3c(c2)CC[C@H]3NC(=O)OCC(C)C)no1` [Compound 320, isobutyl (R)-(5-(5-methyl-1,2,4-oxadiazol-3-yl)-2,3-dihydro-1H-inden-1-yl)carbamate]: the “CDMF75 IC15” value was 0.7 µM and the pIC50 is 5.51. Taken in the same sequence, the figures for `Cc1nc(-c2ccc3c(c2)CC[C@H]3NC(=O)c2nnn(C)n2)no1` [Compound 136, (R)-2-methyl-N-(5-(5-methyl-1,2,4-oxadiazol-3-yl)-2,3-dihydro-1H-inden-1-yl)-2H-tetrazole-5-carboxamide] were 0.8 µM and 5.55. Regarding `CCc1nc(-c2ccc3c(c2)CCC3C(=O)Nc2cnn(C)c2)no1` (stereo not drawn) [Compound 482, 5-(5-ethyl-1,2,4-oxadiazol-3-yl)-N-(1-methyl-1H-pyrazol-4-yl)-2,3-dihydro-1H-indene-1-carboxamide], the “CDMF75 IC15” value was 3.9 µM.
